Measurements published in patent US10662409B2, “Methods of generating neural stem cells” (Trustees of Tufts College, priority 2015, dated 2020).

How the values were obtained:
Type in all cases: cell-based, human
GABA receptors = assay: Electrophysiology of 1-week hiNSC cultures, functionality of GABA receptors; conditions: hiNSCs cultured for one week
Description: hiNSCs were grown on poly-L-lysine coated coverslips (Corning) in neurobasal media supplemented with 2% B27 (Invitrogen), 1% Glutamax, and 1% antibiotic-antimycotic for 1-8 weeks. Recordings were performed at 34° C. For whole-cell patch clamp experiments, pipettes contained saline (in mM): 130 K-gluconate, 10 KCl, 0.1 CaCl2, 2 Mg-ATP, 1.1 EGTA, and 10 HEPES, pH 7.4 KOH. Bath saline contained the following (in mM): 140 NaCl, 2.5 KCl, 2.5 CaCl2, 1.2 MgCl2, 10 HEPES, and 11 glucose, pH 7.4 NaOH.
To determine the functionality of GABA receptors, 1-week hiNSC cultures were assessed via known electrophsysiology methods (e.g., voltage ramp) in order to determine the response of neurons resulting from provided hiNSCs both in the presence of muscimol and in its absence.

hiNSCs [1] = assay: Differentiation of dissociated hiNSCs with retinoic acid added to basal media (immunostaining); conditions: retinoic acid 10-100 μM
Description: (§1) To encourage spontaneous differentiation, hiNSC colonies were enzymatically removed from MEF feeder layers using TrypLE (Invitrogen), then dissociated as much as possible by manually pipetting. This cell suspension was sometimes further separated into a single cell suspension using a […] cell strainer to remove larger clumps. Dissociated hiNSCs were plated and cultured on multiple substrates including CELLstart (Invitrogen), laminin (Roche) or gelatin in hiNSC basal media without bFGF or in neurobasal media supplemented with 2% B27 (Invitrogen), 1% Glutamax, and 1% antibiotic-antimycotic. hiNSC cells began to show differentiation into BIII-tubulin (TUJ1)-positive immature neurons with visible neurite extensions in as little as 4 days. After two weeks in basal media, hiNSC cells spontaneously differentiated into more mature neuronal and glial subtypes. Adding various amounts of retinoic acid (10-100 μM) caused cells to differentiate into more mature neuronal phenotypes in a shorter amount of time (˜8 days). […] For guided differentiation, Shh (500 ng/ml, Peprotech), FGF8 (500 ng/ml, Peprotech), and RA (R&D) at concentrations between 10-100 μM were used to facilitate neuronal and glial differentiation within shorter culture periods (˜7-8 days). For differentiation studies in undefined media, DMEM supplemented with 10% FBS and 1% antibiotic-antimycotic was used. […]

[2] = test system: inhibitory GABA receptors; assay: Live Fluo-4AM calcium imaging of hiNSC cultures; conditions: two-week cultures; 200 μM picrotoxin just before imaging
Description: Cells plated onto coverslips or on 3D scaffolds were immersed in extracellular solution (NaCl 140 mM, KCl 2.8 mM, CaCl2 2 mM, MgCl2 2 mM, HEPES 10 mM, glucose 10 mM, pH=7.4, adjusted with NaOH). Fluo-4 (Invitrogen) calcium sensitive dye was mixed 1:1 with 20% Pluronic F127 (Invitrogen). Next, Fluo-4 was diluted to a final concentration of 1 μM in the extracellular buffer and pre-warmed to 37° C. The Fluo-4 1 μM solution was applied to cells and incubated at 37° C. for 1 hour. Upon incubation, cells were washed with the extracellular buffer to remove any unreacted dye. Cells were imaged using Olympus MVX10 macroscope (12.6× magnification) and Hamamatsu ORCA-Flash4.0 camera. The images were taken with the following setup: 15 ms exposure, 60 ms frame frequency, 512×512 pixel, 4×4 binning, […] over 3 minutes at room temperature. Some samples were treated with 200 μM picrotoxin (Sigma-Aldrich) just before imaging. The movie was created using ImageJ software (NIH).

hiNSCs [3] = assay: Guided differentiation of hiNSCs into neuronal subtypes with growth factors in Neurobasal media (HB9 / TH immunostaining); conditions: added to Neurobasal media; one week in culture; FGF8 500 ng/ml, Shh 500 ng/ml
Description: as §1

Molecule: NCc1cc(=O)[nH]o1 [muscimol]
- membrane potential response of hiNSCs to GABA agonist (GABA receptors): depolarizing response

Molecule: CC1=C(/C=C/C(C)=C/C=C/C(C)=C/C(=O)O)C(C)(C)CCC1 [retinoic acid]
- time to differentiate into more mature neuronal phenotypes (hiNSCs [1]): ~8 days

Molecule: picrotoxin
- spontaneous calcium signaling in response to GABA receptor blocker [2]: significantly activated

B1: FGF8: fibroblast growth factor 8 (Peprotech) added to culture media (protein, UniProt P55075 23-233, looked up)
Fibroblast growth factor 8: QEGPGRGPALGRELASLFRAGREPQGVSQQHVREQSLVTDQLSRRLIRTYQLYSRTSGKHVQVLANKRINAMAEDGDPFAKLIVETDTFGSRVRVRGAETGLYICMNKKGKLIAKSNGKGKDCVFTEIVLENNYTALQNAKYEGWYMAFTRKGRPRKGSKTRQHQREVHFMKRLPRGHHTTEQSLRFEFLNYPPFTRSLRGSQRTWAPEPR
- staining of tyrosine hydroxylase (TH, marker of dopaminergic neurons) (hiNSCs [3]): increase
